This is an account of results in PubChem BioAssay AID1890 (The Scripps Research Institute Molecular Screening Center, 2009).

Activity calls are given as the source filed them. How the calls were made is not given here.

This test deals with Replicase polyprotein 1ab (Severe acute respiratory syndrome coronavirus) (UniProt P0C6X7). Briefly: SARS 3CLpro cleavage inhibition IC50 – biochemical, quenched FRET, dose response (AID 1890). The settings on record: purified 3CLpro, quenched FRET peptide cleavage.
The IC50 is the concentration at which inhibition is half-maximal. As to `COc1ccc(C2CC(c3cccs3)=NN2C(=O)CCl)cc1OC` (stereo not given), the IC50 is 2.3 µM.

As for `O=C(CCl)N(CCc1ccccc1)CCc1ccccc1`, the IC50 entry is “inactive”. For `CC(=O)c1cc(-c2ccccc2)[nH]c1N1CCCC1` the value was 4.63 µM. The value for `CC(C)C12CN(C(=O)c3ccccc3[N+](=O)[O-])CC(C(C)C)(CN(C(=O)c3ccccc3[N+](=O)[O-])C1)C2=O` was “inactive”. Regarding `O=C(Nc1ccc(OCC(F)(F)C(F)F)c(C(F)(F)F)c1)c1ccccc1O`, the IC50 was > 59.6 µM (inactive). Consider `O=C1C(=O)N(CC2COc3ccccc3O2)c2ccccc21` (stereo not given), for which the IC50 result is “inactive”. Turning to `COc1ccc(C2C(O)C(c3c[nH]c4ccccc34)=NN2C(=O)CCl)cc1` (stereo not given), the IC50 was 3.58 µM. Regarding `Cc1cc(C)n(C(=O)c2ccc(C)c(Br)c2)n1`, the IC50 result is “inactive”.

For the compound `O=C(Oc1ccc(Br)cc1C(=O)/C=C/c1ccccc1F)c1ccco1`, the IC50 was 7.12 µM. For `CC(=O)c1c(OC(=O)c2ccco2)c2ccccc2n1C`, the IC50 result is “inactive”.
